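Assay format: 96-well plates, 48-hour exposure. TGI: total growth inhibition.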 Peptide text beside a SMILES is read from it. * marks the point of attachment. X34 = O=C(c1ccc(-c2ccc(Cl)cc2Cl)o1)*
Key:
Test in all cases: growth of human tumour cells (NCI), 48 h
ACHN renal = system: ACHN renal
CAKI-1 renal = system: CAKI-1 renal
COLO 205 colon = system: COLO 205 colon
DU-145 prostate = system: DU-145 prostate
HCC-2998 colon = system: HCC-2998 colon
KM12 colon = system: KM12 colon
MDA-MB-231 breast = system: MDA-MB-231 breast
MDA-N = system: MDA-N
NCI-H522 lung = system: NCI-H522 lung
OVCAR-5 ovarian = system: OVCAR-5 ovarian
PC-3 prostate = system: PC-3 prostate
RPMI-8226 leukemia = system: RPMI-8226 leukemia
RXF 393 renal = system: RXF 393 renal
SF-295 CNS = system: SF-295 CNS
SF-539 CNS = system: SF-539 CNS
SK-MEL-2 melanoma = system: SK-MEL-2 melanoma
SK-MEL-28 melanoma = system: SK-MEL-28 melanoma
SK-MEL-5 melanoma = system: SK-MEL-5 melanoma
SNB-19 CNS = system: SNB-19 CNS
UO-31 renal = system: UO-31 renal

Row | Structure (SMILES) | TGI (ACHN renal) [µM] | TGI (CAKI-1 renal) [µM] | TGI (COLO 205 colon) [µM] | TGI (DU-145 prostate) [µM] | TGI (HCC-2998 colon) [µM] | TGI (KM12 colon) [µM] | TGI (MDA-MB-231 breast) [µM] | TGI (MDA-N) [µM] | TGI (NCI-H522 lung) [µM] | TGI (OVCAR-5 ovarian) [µM] | TGI (PC-3 prostate) [µM] | TGI (RPMI-8226 leukemia) [µM] | TGI (RXF 393 renal) [µM] | TGI (SF-295 CNS) [µM] | TGI (SF-539 CNS) [µM] | TGI (SK-MEL-2 melanoma) [µM] | TGI (SK-MEL-28 melanoma) [µM] | TGI (SK-MEL-5 melanoma) [µM] | TGI (SNB-19 CNS) [µM] | TGI (UO-31 renal) [µM]
1 | CN(CCNC(=O)c1nn(-c2ccc(Cl)cc2Cl)c2c1Cc1ccccc1-2)CCNC(=O)c1nn(-c2ccc(Cl)cc2Cl)c2c1Cc1ccccc1-2 | 29.7 | > 47.4 | 3.43 | > 61.9 | 3.26 | > 100 | 8.88 | 4.89 | 3.71 | > 87.5 | > 100 | 4.5 | 4.54 | 5.19 | 3.68 | 4.32 | 4.97 | 3.48 | > 100 | 7.81
2 | COn1oc(=O)c2ccccc21 | > 100 | > 100 | > 100 | > 100 | > 100 | > 100 | > 100 | > 100 | > 100 | > 100 | > 100 | > 100 | > 100 | > 100 | > 100 | > 100 | > 100 | > 100 | > 100 | > 100
3 | c1ccc(SCCc2ccncc2)cc1 | > 100 | > 100 | > 100 | > 100 | > 100 | > 100 | > 100 | > 100 | > 100 | > 100 | > 100 | > 100 | > 100 | > 100 | > 100 | > 100 | > 100 | > 100 | > 100 | > 100
4 | CCOC(=O)C(NC(=O)c1ccccc1)(c1ccc(S(=O)(=O)Nc2onc(C)c2C)cc1)C(F)(F)F (stereo unspecified) | > 100 | > 100 | > 100 | > 100 | > 100 | > 100 | > 100 | > 100 |  | > 100 | > 100 | > 100 | > 100 | > 100 | > 100 | > 100 | > 100 | > 100 | > 100 | > 100
5 | COc1ccc2nc3cc([N+](=O)[O-])ccc3c(Nc3ccc(S(=O)(=O)Nc4ncccn4)cc3)c2c1 | > 71.8 | > 100 | > 100 | > 100 | > 100 | > 100 | > 100 | > 100 | > 100 | > 100 | > 100 | > 66.1 | > 100 | > 100 | > 100 | > 86.3 | > 100 | > 100 | > 53.6 | > 100
6 | CC[C@]1(Cc2ccc(OC)c(OC)c2)C2CC(C(=O)OC)ON2O[C@H](OCc2ccccc2)[C@@H]1OC(C)=O (stereo partly specified) | > 100 | > 100 | > 100 | > 100 | > 100 | > 100 | > 100 | > 100 | > 100 | > 100 | > 100 | > 100 | > 100 | > 100 |  | > 100 | > 100 | > 100 | > 100 | > 100
7 | Cc1cc(C#N)c(Nc2ccc(F)cc2[N+](=O)[O-])s1 | > 100 | > 100 | > 100 | > 100 | > 100 | > 100 | 68.8 | > 100 | > 100 | > 100 | > 100 | > 100 | > 100 | > 100 | > 100 |  | > 100 |  | > 100 | > 100
8 | COC(=O)C(CC(C)C)NC(=O)C(Cc1ccccc1)NC(=O)C1CCCN1C(=O)C(CO)NC(=O)c1ccc(-c2ccc(Cl)cc2Cl)o1 (stereo unspecified) (X34-SPFL-OMe; configuration not given here) | > 100 | > 100 | 30.8 | > 100 | 27.4 | > 100 | 32.3 | > 100 | > 100 | 50.4 | > 100 | 44.2 | 44.7 | 46.5 | 60.4 | 33.7 | > 100 | 35.2 | > 100 | 65.2
9 | CNC(=O)N1CN(c2ccccc2)C2(CCN(Cc3ccccc3)CC2)C1=O | > 100 | > 100 | > 100 | > 100 | 39.8 | > 100 | > 100 | > 100 | > 100 | 64.1 | > 100 | > 100 | > 100 | > 100 | > 100 |  | > 100 | > 100 | > 100 | > 100
10 | CCOC(=O)[C@@]1(C(C)=O)CC(C)=C(C)C[S@]1=O | > 100 | > 100 | > 100 | > 100 | > 100 | > 100 | > 100 | > 100 | > 100 | > 100 | > 100 | > 100 | > 100 | > 100 |  | > 100 | > 100 |  | > 100 | > 100
11 | Nc1ncnc2c1ncn2[C@@H]1O[C@H](COP(=O)(O)OP(=O)(O)OC[C@H]2O[C@@H](OCCCO)[C@H](O)[C@@H]2O)[C@@H](O)[C@H]1O | > 100 | > 100 | > 100 | > 100 | > 100 | > 100 | > 100 | > 100 | > 100 | > 100 | > 100 | > 100 | > 100 | > 100 | > 100 | > 100 | > 100 | > 100 | > 100 | > 100
12 | CN(C)/C=C/c1c2c(nc3ccccc13)C(=O)c1cccnc1C2=O | 2.28 | > 38.7 | 5.55 | 1.47 | 2.6 | 1.56 | > 100 | 1.92 | 1.13 | 3.95 | 11.1 | 6.27 | 3.48 | 1.62 | 1.21 | 4.1 | 1.84 | 0.346 | 1.95 | 3.02
13 | COc1ccc(C(=O)CCN(C)C)c2ccccc12 | 34 | 17.4 | 36.6 | > 62 | 36 | > 63.7 | 35.6 | 50.5 | 21.9 | > 96.5 | 34 | 4.44 | 41.9 | > 100 | 33.1 | 39.2 | 60.3 | > 100 | > 100 | 44.2
14 | O=C(O)/C=C/c1ccc(OS(=O)(=O)O)cc1 | > 100 | > 100 | > 100 | > 100 | > 100 | > 100 | > 100 | > 100 | > 100 | > 100 | > 100 | > 100 | > 100 | > 100 | > 100 | > 100 | > 100 | > 100 | > 100 | > 100
15 | c1cc(C2=NCCO2)c2ccsc2c1 | > 100 | > 100 | > 100 | > 100 | > 100 | > 100 | > 100 | > 100 | > 100 | > 100 | > 100 | > 100 | > 100 | > 100 | > 100 | > 100 | > 100 | > 100 | > 100 | > 100
16 | COCN1C(=N)C(C(=O)OC(C)(C)C)=C2C=C(O)C=CC21C (stereo unspecified) | 19.6 | 28.5 | 17.5 | 24.2 | 40.5 | 30.5 | 29 | 31.9 | 13.5 | 32.5 | 30.6 | > 100 | 19.3 | > 100 | 33.6 | 31.9 | 36.3 | 28.6 | > 100 | 26.4
17 | Cc1cccc2c(NCCN(C)C)c3cccc(C(=O)NCCN(C)C)c3nc12 | 4.33 | 4.92 | 1.61 | 3.61 | 1.33 | 1.04 | 0.728 | 0.9 | 0.114 | 14.4 | 6.73 | 0.21 | 2.54 | 3.77 | 0.68 | 1.13 | 8.37 | 0.962 | 11.2 | 1.63
18 | CCOc1cc(C2SCC(=O)N2c2ccc3c(c2)Oc2c(Cl)c4c(c(Cl)c2=N3)Oc2cc(N3C(=O)CSC3c3ccc(O)c(OCC)c3)ccc2N=4)ccc1O (stereo unspecified) | 73.4 | > 100 |  | > 100 | > 100 | > 100 | > 100 | > 100 | > 100 | > 100 | > 100 | > 100 | 58.9 | > 100 | 28.2 | 93.9 | > 100 | > 100 |  | > 100
19 | CC(C)(C)OC(=O)NCCC1CNc2ccccc21 (stereo unspecified) | > 100 | > 100 | > 100 | > 100 | > 100 | > 100 | > 100 | > 100 | > 100 | > 100 | > 100 | > 100 | > 100 | > 100 |  | > 100 | > 100 | > 100 | > 100 | > 100
20 | C/C=C\C(CC(=O)NCCC1CN(C(=O)OCc2ccccc2)c2ccccc21)CC(=O)OC (stereo unspecified) | > 100 | > 100 | > 100 | > 100 | > 100 | > 100 | > 100 | > 100 | > 100 | > 100 | > 100 | > 100 | > 100 | > 100 |  | > 100 | > 100 | > 100 | > 100 | > 100
21 | CCOP(=O)(Nc1ccc(-c2ccc(N)cc2)cc1)OCC | > 100 | > 100 | > 100 | > 100 | > 100 | > 100 | > 100 | > 100 | > 100 | > 100 | > 100 | > 100 | 98.8 | > 100 |  | > 100 | > 100 | > 100 | > 100 | > 100
22 | Cc1cn(C2CC(N=[N+]=[N-])C(CO)O2)c(=O)n(CCCCBr)c1=O (stereo unspecified) | > 100 | > 100 | > 100 | > 100 | > 100 | > 100 | > 100 | > 100 | > 100 | > 100 | > 100 | > 100 | > 100 | > 100 | > 100 | > 100 | > 100 |  | > 100 | > 100
23 | O=C1/C(=C/c2ccccc2)CCc2ccc([N+](=O)[O-])cc21 | > 100 | > 100 | > 100 | > 100 | > 100 | > 100 | > 100 | > 100 |  | > 100 | > 100 | 7.13 | 77.7 | > 100 | > 100 | 38.3 | > 100 | > 91.2 | 91.3 | > 100
